Experimental data published in publication PMC8275407 (BioMed Research International, 2021).

Target: recombinant soluble dimeric mouse H-2D^b:Ig (DimerX) protein (Mus musculus, UniProt P01899)
Experiment: biochemical
Format: binding

recombinant soluble dimeric mouse H-2D^b:Ig (DimerX) protein, sequence (P01899 25-298 limits assumed): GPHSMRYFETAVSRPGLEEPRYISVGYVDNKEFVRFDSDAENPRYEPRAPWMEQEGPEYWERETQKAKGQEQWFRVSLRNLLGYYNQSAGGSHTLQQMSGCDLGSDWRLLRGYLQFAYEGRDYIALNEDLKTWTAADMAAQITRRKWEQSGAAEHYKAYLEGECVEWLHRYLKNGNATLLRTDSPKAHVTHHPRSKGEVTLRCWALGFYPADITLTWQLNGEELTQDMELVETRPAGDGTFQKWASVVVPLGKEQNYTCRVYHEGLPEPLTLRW

## CC[C@H](C)[C@H](NC(=O)CNC(=O)[C@@H](NC(=O)[C@H](Cc1ccccc1)NC(=O)[C@H](CCCCN)NC(=O)[C@H](CO)NC(=O)[C@H](CC(N)=O)NC(=O)[C@H](C)NC(=O)[C@H](CCCCN)NC(=O)[C@@H](NC(=O)[C@H](Cc1ccc(O)cc1)NC(=O)[C@@H](N)CCC(N)=O)[C@@H](C)CC)[C@@H](C)CC)C(=O)N[C@H](C(=O)N[C@@H](CCC(=O)O)C(=O)O)[C@@H](C)O [TT830-843]
  Kd: 344 ± 60 nM
pH 7.2, read-out: association rate constant ka
  kon: 900000 M⁻¹ s⁻¹
pH 7.2, read-out: dissociation rate constant kd
  koff: 0.31 ± 0.02 s⁻¹
